Reference: PMC8708875 (Pharmaceutics, 2021)

Key:
[1] = tested on: Erk 1/2 phosphorylation (pErk); assay: Erk phosphorylation by Western blotting in differentiated C2C12 cells; format: cell-based, mouse; conditions: peptides 100 µM, insulin 100 nM, Western blot, three independent experiments
Procedure: C2C12 cells were used as a well-described model of skeletal muscle to evaluate the effect of peptides in gene expression, cell signaling, and glucose uptake. These cells were kindly provided by Prof. Patricia Brum, School of Physical Education and Prof. Anselmo Moriscot, Biomedical Science Institute, University of São Paulo, São Paulo, Brazil. C2C12 cells were cultured and maintained in high glucose Dulbecco’s modified Eagle’s medium (DMEM; Thermo Fisher Scientific, São Paulo, SP, Brazil) supplemented with 10% fetal bovine serum (FBS), 100 U/mL penicillin, and […] streptomycin in a humidified atmosphere of 5% CO2 at 37 °C. The cells were used in low pass (between passages 2 and 4) for all experiments to maintain the potential for differentiation of cultures. […]
Western blotting experiments were performed to evaluate the expression levels of specific proteins. […] Western blot bands were visualized with Super-Signal West Pico Chemiluminescent substrate (Thermo Scientific) using the ChemiDoc™ MP Imaging System (BioRad, Hercules, CA, USA), and quantified using ImageJ 1.49 software. All results are expressed as the means ± standard error of the mean (SEM). […] Data were statistically analyzed with GraphPad Prism software (GraphPad Software Inc, San Diego, CA, USA). […]

[2] = tested on: differentiated C2C12 myotubes; assay: qPCR gene expression in differentiated C2C12 myotubes; format: cell-based, mouse; conditions: Ric peptides 100 µM, insulin positive control, qPCR normalised to GAPDH, control = 1, mean ± SEM

Substance | phosphorylation of Erk (pErk over total Erk) [1] | relative expression of Myosin, light chain 1 (MYL1) [2]
Insulin | increased | 6.18 ± 1.07
LASVSTVLTSKYR [Ric4, intracellular peptide derived from hemoglobin alpha subunit, last 13 C-terminal amino acids] | activated | 3.58 ± 1.07
